Results published in patent publication US11225477B2, “Inhibitors of influenza virus replication, application methods and uses thereof” (SUNSHINE LAKE PHARMA CO., LTD., priority 2015, dated 2022).

Tested on: virus H1N1 A/Weiss/43
Assay: microbe, parasite or virus in culture
Type: cell-based
Settings: Influenza A virus, 120 h; MDCK cells, H1N1 A/Weiss/43, Scheme 2: 8 concentrations 50 nM to 0.023 nM, 5 days, CCK-8

Row | Structure (SMILES) | EC50
1 | O=C(O)C1C2CCC(CC2)C1Nc1cc(-c2cc3ccccc3o2)nc(-c2c[nH]c3ncc(F)cc23)n1 (racemic) [Example 16, (+/−)-trans-3-((6-(benzofuran-2-yl)-2-(5-fluoro-1H-pyrrolo[2,3-b]pyridin-3-yl)pyrimidin-4-yl)amino)bicyclo[2.2.2]octane-2-carboxylic Acid] | 0.54 nM
2 | O=C(O)C1C2CCC(CC2)C1Nc1cc(-c2cccs2)nc(-c2c[nH]c3ncc(F)cc23)n1 (racemic) [Example 23, (+/−)-trans-3-((2-(5-fluoro-1H-pyrrolo[2,3-b]pyridin-3-yl)-6-(thiophen-2-yl)pyrimidin-4-yl)amino)bicyclo[2.2.2]octane-2-carboxylic Acid] | 0.104 nM
3 | CC(C)n1ccc2c(NC3C4CCC(CC4)C3C(=O)O)nc(-c3c[nH]c4ncc(F)cc34)nc21 (racemic) [Example 25, (+/−)-trans-3-((2-(5-fluoro-1H-pyrrolo[2,3-b]pyridin-3-yl)-7-isopropyl-7H-pyrrolo[2,3-d]pyrimidin-4-yl)amino)bicyclo[2.2.2]octane-2-carboxylic Acid] | 0.26 nM
4 | O=C(O)C1C2CCC(CC2)C1Nc1nc(-c2c[nH]c3ncc(F)cc23)nc(-c2ccco2)c1F (racemic) [Example 49, (+/−)-trans-3-((5-fluoro-2-(5-fluoro-1H-pyrrolo[2,3-b]pyridin-3-yl)-6-(furan-2-yl)pyrimidin-4-yl)amino)bicyclo[2.2.2]octane-2-carboxylic Acid] | 0.068 nM
5 | O=C(O)C1C2CCC(CC2)C1Nc1nc(-c2c[nH]c3ncc(F)cc23)nc(-c2cc3ccccc3o2)c1F (racemic) [Example 54, (+/−)-trans-3-((6-(benzofuran-2-yl)-5-fluoro-2-(5-fluoro-1H-pyrrolo[2,3-b]pyridin-3-yl)pyrimidin-4-yl)amino)bicyclo[2.2.2]octane-2-carboxylic Acid] | 0.261 nM
6 | O=C(O)C1C2CCC(CC2)C1Nc1nc(-c2c[nH]c3ncc(F)cc23)nc(-c2cc3ccccc3s2)c1F (racemic) [Example 55, (+/−)-trans-3-((6-(benzo[b]thiophen-2-yl)-5-fluoro-2-(5-fluoro-1H-pyrrolo [2,3-b]pyridin-3-yl)pyrimidin-4-yl)amino)bicyclo[2.2.2]octane-2-carboxylic Acid] | 0.874 nM
7 | O=C(O)[C@H]1C2CCC(CC2)C1Nc1cc(-c2ccccc2)nc(-c2c[nH]c3ncc(F)cc23)n1 (stereo in doubt) [Example 4a, (2S,3S)-3-((2-(5-fluoro-1H-pyrrolo[2,3-b]pyridin-3-yl)-6-phenylpyrimidin-4-yl)amino)bicyclo[2.2.2]octane-2-carboxylic Acid] | 0.17 nM
8 | O=C(O)[C@H]1C2CCC(CC2)C1Nc1cc(-c2ccco2)nc(-c2c[nH]c3ncc(F)cc23)n1 (stereo in doubt) [Example 9a, (2S,3S)-3-((2-(5-fluoro-1H-pyrrolo[2,3-b]pyridin-3-yl)-6-(furan-2-yl)pyrimidin-4-yl)amino)bicyclo[2.2.2]octane-2-carboxylic Acid] | 0.039 nM
9 | O=C(O)[C@H]1C2CCC(CC2)C1Nc1cc(-c2ccc([N+](=O)[O-])o2)nc(-c2c[nH]c3ncc(F)cc23)n1 (stereo in doubt) [Example 24a, (2S,3S)-3-((2-(5-fluoro-1H-pyrrolo[2,3-b]pyridin-3-yl)-6-(5-nitrofuran-2-yl)pyrimidin-4-yl)amino)bicyclo[2.2.2]octane-2-carboxylic Acid] | 0.744 nM
10 | CC(C)n1ccc2c(N[C@H]3C4CCC(CC4)[C@@H]3C(=O)O)nc(-c3c[nH]c4ncc(F)cc34)nc21 [Example 78, (2S,3S)-3-((2-(5-fluoro-1H-pyrrolo[2,3-b]pyridin-3-yl)-7-isopropyl-7H-pyrrolo [2,3-d]pyrimidin-4-yl)amino)bicyclo[2.2.2]octane-2-carboxylic Acid] | 0.236 nM
